Assays:
tobacco cutworm [1] = assay: Insecticidal effect on tobacco cutworm (cabbage leaf dip); format: in vivo, Prodenia litura; conditions: after 48 hours, 25°C
Description: (§1) (A) An emulsifiable concentrate prepared as described in Formulation Example 1 was diluted with water to a predetermined concentration and then cabbage leaves were dipped into the dilute solution and dried in air and placed in a 60 ml volume cup made of vinyl chloride resin. 3rd-instar larvae of tobacco cutworm were put in each cup and maintained at 25°C. After 48 hours, percent mortality was assessed. The test was replicated 3 times for each compound using 30 insects in each test.
as §1, with “(B)” for “(A)”, “3” for “1”

Cotton = assay: Phytotoxicity on various crops; format: in vivo; set-up: key: Symbol — indicates that no toxicity was observed; conditions: 500 ppm sprayed; checked visually after 10 days
Description: (§2) An emulsifiable concentrate prepared as described in Formulation Example 2 was diluted with water to a concentration of 500 ppm based on the effective ingredient and sprayed sufficiently using a spray-gun onto various test plants. The plants were kept in a green house. After 10 days from the application phytotoxicity was checked visually. The test was replicated 3 times for each compound.

egg plant = assay: Phytotoxicity on various crops; format: in vivo; set-up: key: Symbol — indicates that no toxicity was observed; conditions: 500 ppm sprayed; checked visually after 10 days
Description: as §2

Kidney Bean = assay: Phytotoxicity on various crops; format: in vivo; set-up: key: Symbol — indicates that no toxicity was observed; conditions: 500 ppm sprayed; checked visually after 10 days
Description: as §2

Green Pepper = assay: Phytotoxicity on various crops; format: in vivo; set-up: key: Symbol — indicates that no toxicity was observed; conditions: 500 ppm sprayed; checked visually after 10 days
Description: as §2

Tea = assay: Phytotoxicity on various crops; format: in vivo; set-up: key: Symbol — indicates that no toxicity was observed; conditions: 500 ppm sprayed; checked visually after 10 days
Description: as §2

Cucumber = assay: Phytotoxicity on various crops; format: in vivo; set-up: key: Symbol — indicates that no toxicity was observed; conditions: 500 ppm sprayed; checked visually after 10 days
Description: as §2

Apple = assay: Phytotoxicity on various crops; format: in vivo; set-up: key: Symbol — indicates that no toxicity was observed; conditions: 500 ppm sprayed; checked visually after 10 days
Description: as §2

Tomato = assay: Phytotoxicity on various crops; format: in vivo; set-up: key: Symbol — indicates that no toxicity was observed; conditions: 500 ppm sprayed; checked visually after 10 days
Description: as §2

Rice = assay: Phytotoxicity on various crops; format: in vivo; set-up: key: Symbol — indicates that no toxicity was observed; conditions: 500 ppm sprayed; checked visually after 10 days
Description: as §2

Beet = assay: Phytotoxicity on various crops; format: in vivo; set-up: key: Symbol — indicates that no toxicity was observed; conditions: 500 ppm sprayed; checked visually after 10 days
Description: as §2

Cabbage = assay: Phytotoxicity on various crops; format: in vivo; set-up: key: Symbol — indicates that no toxicity was observed; conditions: 500 ppm sprayed; checked visually after 10 days
Description: as §2

rice stem borer = assay: Insecticidal effect on rice stem borer, 3rd-instar larvae (rice seedling dip); format: in vivo, Chilo suppressalis; conditions: after 72 hours, 25°C
Description: (§3) (A) A wettable powder prepared as described in Formulation Example 5 was diluted with water to a predetermined concentration. Rice seedlings were dipped into the dilute solution and placed in a 60 ml volume cup made of vinyl chloride resin, and 10 3rd-instar larvae of rice stem borer were put in each cup. The cups were capped and maintained at 25°C.
as §3, with “(B) A” for “(A) A”, “Example 7” for “Example 5”

tobacco cutworm [2] = assay: Long-lasting insecticidal effect on tobacco cutworm (sprayed cabbage plantlet); format: in vivo, Prodenia litura; conditions: Table 5, concentration 500 (unit not given), mortality after 48 hours
Description: (§4) (A) An emulsifiable concentrate prepared as described in Formulation Example 2 was diluted with water to a predetermined concentration and sprayed onto a cabbage plantlet in a flower pot of 15 cm in diameter using a spray-gun sufficiently and the tests plants were placed in a green house. The leaves of the plants were cut off on the 3rd, 5th, 7th, 10th and 15th day and placed in a 60 ml volume cup and 3rd-instar larvae of tobacco cutworm were put in each cup. The cups were kept in an incubator (25°C). After 48 hours, percent mortality was assessed. The tests was replicated 3 times for each compound using 30 insects in each test.
as §4, with “(B) An” for “(A) An”, “Example 3” for “Example 2”, “and 1 5th” for “and 15th”

[3] = Table 3, 500 ppm, emulsifiable concentrate as Formulation Example 1
[4] = Table 1, 500 ppm, wettable powder as Formulation Example 5
[5] = Table 4, 100 ppm, emulsifiable concentrate as Formulation Example 3
[6] = Table 1, 100 ppm, wettable powder as Formulation Example 5
[7] = Table 2, 100 ppm, wettable powder as Formulation Example 7

Row | Compound | Percent Mortality (%) (tobacco cutworm [1]; [3]) | Phytotoxicity: Cotton (Cotton) | Phytotoxicity: Egg Plant (egg plant) | Phytotoxicity: Kidney Bean (Kidney Bean) | Phytotoxicity: Green Pepper (Green Pepper) | Phytotoxicity: Tea (Tea) | Phytotoxicity: Cucumber (Cucumber) | Phytotoxicity: Apple (Apple) | Phytotoxicity: Tomato (Tomato) | Phytotoxicity: Rice (Rice) | Phytotoxicity: Beet (Beet) | Phytotoxicity: Cabbage (Cabbage) | Percent Mortality (%) (rice stem borer; [4]) | other results
1 | CCCOP(=O)(Oc1ccc2c(c1)OC(C)=CC2(C)C)SCCC (centres unmarked) [Compound No. 3] | 100 | — | — | — | — | — | — | — | — | — | — | — | 100 | 
2 | CCOP(=O)(Oc1ccc2c(c1)OC(C)=CC2(C)C)SCC (centres unmarked) [Compound No. 8] | 100 | — | — | — | — | — | — | — | — | — | — | — | 100 | 
3 | CCCOP(=O)(Oc1ccc2c(c1)OC(C)=CC2(C)C)SC (centres unmarked) [Compound No. 13] | 100 | — | — | — | — | — | — | — | — | — | — | — | 100 | 
4 | CCCSP(=O)(OCC)Oc1ccc2c(c1)OC(CC)=C(C)C2(CC)CC (centres unmarked) [Compound No. 21, O-ethyl-S-propyl-O-(2,4,4-triethyl-3-methyl-1,2-benzopyran-7-yl)phosphorothioate] |  | — | — | — | — | — | — | — | — | — | — | — | 100 | Percent Mortality (%) (tobacco cutworm [1]; [5]): 100%; Percent Mortality (%) (rice stem borer; [6]): 100%; Percent Mortality (%) (rice stem borer; [7]): 100%
5 | CCOP(=S)(Oc1cccc2c1C(C)=CC(C)(C)O2)SC(C)CC (centres unmarked) [Compound No. 27] |  | — | — | — | — | — | — | — | — | — | — | — |  | Percent Mortality (%) (tobacco cutworm [1]; [5]): 100%; Percent Mortality (%) (rice stem borer; [7]): 100%
6 | COP(=O)(OC)C(O)C(Cl)(Cl)Cl (centres unmarked) [Dipterex, dimethyl 2,2,2-trichloro-1-hydroxyethyl phosphonate, reference compound] |  |  |  |  |  |  |  |  |  |  |  |  | 100 | Percent Mortality (%) (rice stem borer; [6]): 100%
7 | CNC(=O)ON=C(C)SC [Lannate, S-methyl N-(methylcarbamoyloxy)thioacetimidate, reference compound] |  |  |  |  |  |  |  |  |  |  |  |  |  | Percent Mortality After Application 3rd Day (tobacco cutworm [2]; leaves cut on 3rd day): 80%; Percent Mortality After Application 5th Day (tobacco cutworm [2]; leaves cut on 5th day): 30%; Percent Mortality After Application 7th Day (tobacco cutworm [2]; leaves cut on 7th day): 7%; Percent Mortality After Application 10th Day (tobacco cutworm [2]; leaves cut on 10th day): 0%; Percent Mortality After Application 15th Day (tobacco cutworm [2]; leaves cut on 15th day): 0%
8 | COP(=O)(NC(C)=O)SC (centres unmarked) [Orthene, O,S-dimethyl acetylphosphoramidothioate, reference compound] | 90.0 |  |  |  |  |  |  |  |  |  |  |  |  | 
9 | COP(=S)(OC)Oc1ccc([N+](=O)[O-])c(C)c1 [Sumithion, dimethyl(3-methyl-4-nitrophenyl)thiophosphate, reference compound] |  |  |  |  |  |  |  |  |  |  |  |  |  | Percent Mortality (%) (rice stem borer; Table 2, concentration not given): 100%
10 | CCCCOP(=O)(Oc1ccc2c(c1)OC(C)=CC2(C)C)SCCC (centres unmarked) [compound 4] | 100 | — | — | — | — | — | — | — | — | — | — | — | 100 | 
11 | CCOP(=S)(Oc1ccc2c(c1)OC(C)=CC2(C)C)SCC (centres unmarked) [compound 12] | 100 | — | — | — | — | — | — | — | — | — | — | — | 100 | 
12 | CCCSP(=O)(Oc1ccc2c(c1)OC(C)=CC2(C)C)OC(C)CC (centres unmarked) [compound 15] | 100 | — | — | — | — | — | — | — | — | — | — | — | 100 | 
13 | O-isopropyl-S-isopropyl-O-(2,4,4-trimethyl-1,4-benzopyran-7-yl)phosphorothioate [Compound No. 7] | 100 | — | — | — | — | — | — | — | — | — | — | — | 100 | 
